Assay results taken from ChEMBL document CHEMBL5291721, “A preclinical secondary pharmacology resource illuminates target-adverse drug reaction associations of marketed drugs” (Nat Commun, 2023).

Assays:
[1] = molecular target: Epidermal growth factor receptor (Homo sapiens, UniProt P00533); type: functional
Substance-K receptor = molecular target: T1, Substance-K receptor (Homo sapiens, UniProt P21452)
T1 sequence (P21452 whole entry): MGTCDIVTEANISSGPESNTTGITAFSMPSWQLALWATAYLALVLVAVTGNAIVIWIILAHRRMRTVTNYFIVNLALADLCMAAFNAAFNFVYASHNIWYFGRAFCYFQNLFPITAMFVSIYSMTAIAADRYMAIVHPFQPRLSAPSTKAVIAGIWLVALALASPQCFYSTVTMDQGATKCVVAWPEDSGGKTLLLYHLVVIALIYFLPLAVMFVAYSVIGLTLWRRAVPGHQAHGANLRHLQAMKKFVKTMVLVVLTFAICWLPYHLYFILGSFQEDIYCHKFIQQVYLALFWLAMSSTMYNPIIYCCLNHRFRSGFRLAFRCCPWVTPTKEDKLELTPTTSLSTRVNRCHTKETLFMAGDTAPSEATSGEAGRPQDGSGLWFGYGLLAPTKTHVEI

D(1B) dopamine receptor = D(1B) dopamine receptor (Homo sapiens, UniProt P21918)
[2] = molecular target: 5-hydroxytryptamine receptor 5A (Homo sapiens, UniProt P47898)
[3] = molecular target: T2, Muscarinic acetylcholine receptor M4 (Homo sapiens, UniProt P08173)
T2 sequence (P08173 whole entry): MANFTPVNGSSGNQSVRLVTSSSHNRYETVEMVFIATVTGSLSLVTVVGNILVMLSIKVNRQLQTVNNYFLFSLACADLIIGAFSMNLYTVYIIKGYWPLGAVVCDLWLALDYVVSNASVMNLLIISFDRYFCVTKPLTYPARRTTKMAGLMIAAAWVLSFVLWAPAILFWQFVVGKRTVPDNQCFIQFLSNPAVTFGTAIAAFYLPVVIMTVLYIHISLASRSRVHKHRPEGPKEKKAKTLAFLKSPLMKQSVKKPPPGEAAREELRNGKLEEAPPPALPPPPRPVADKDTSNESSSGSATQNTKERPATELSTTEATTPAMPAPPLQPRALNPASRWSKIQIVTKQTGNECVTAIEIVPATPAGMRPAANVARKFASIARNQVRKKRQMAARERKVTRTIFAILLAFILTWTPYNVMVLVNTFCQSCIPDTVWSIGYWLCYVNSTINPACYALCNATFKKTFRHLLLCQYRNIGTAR

[4] = molecular target: T3, Alpha-2A adrenergic receptor (Homo sapiens, UniProt P08913)
T3 sequence (P08913 whole entry): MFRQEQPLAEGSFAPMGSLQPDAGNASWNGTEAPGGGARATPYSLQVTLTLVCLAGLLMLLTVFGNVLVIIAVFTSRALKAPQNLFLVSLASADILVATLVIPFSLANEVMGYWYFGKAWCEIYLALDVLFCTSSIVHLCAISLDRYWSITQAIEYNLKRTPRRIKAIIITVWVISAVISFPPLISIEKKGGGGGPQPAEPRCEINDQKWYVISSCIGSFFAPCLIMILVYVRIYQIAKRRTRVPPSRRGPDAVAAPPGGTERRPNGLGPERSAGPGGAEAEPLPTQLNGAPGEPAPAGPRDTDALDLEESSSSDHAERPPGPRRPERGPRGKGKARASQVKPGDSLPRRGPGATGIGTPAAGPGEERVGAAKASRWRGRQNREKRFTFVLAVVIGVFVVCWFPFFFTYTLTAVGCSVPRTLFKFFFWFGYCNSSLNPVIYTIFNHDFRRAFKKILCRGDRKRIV

[5] = molecular target: T4, 5-hydroxytryptamine receptor 1A (Homo sapiens, UniProt P08908)
T4 sequence (P08908 whole entry): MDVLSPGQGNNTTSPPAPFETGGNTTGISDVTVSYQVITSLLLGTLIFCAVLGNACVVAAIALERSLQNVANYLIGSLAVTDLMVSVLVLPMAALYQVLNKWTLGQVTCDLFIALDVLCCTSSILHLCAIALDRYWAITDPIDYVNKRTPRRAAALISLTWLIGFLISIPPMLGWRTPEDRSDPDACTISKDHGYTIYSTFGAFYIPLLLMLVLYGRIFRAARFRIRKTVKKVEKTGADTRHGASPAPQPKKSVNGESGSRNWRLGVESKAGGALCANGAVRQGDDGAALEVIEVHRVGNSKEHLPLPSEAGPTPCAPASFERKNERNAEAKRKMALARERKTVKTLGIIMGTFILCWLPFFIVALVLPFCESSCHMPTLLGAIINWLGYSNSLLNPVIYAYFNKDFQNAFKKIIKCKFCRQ

Histamine H1 receptor = Histamine H1 receptor (Homo sapiens, UniProt P35367); type: functional, cell-based
[6] = molecular target: T5, Peroxisome proliferator-activated receptor alpha (Homo sapiens, UniProt Q07869); type: functional
T5 sequence (Q07869 whole entry): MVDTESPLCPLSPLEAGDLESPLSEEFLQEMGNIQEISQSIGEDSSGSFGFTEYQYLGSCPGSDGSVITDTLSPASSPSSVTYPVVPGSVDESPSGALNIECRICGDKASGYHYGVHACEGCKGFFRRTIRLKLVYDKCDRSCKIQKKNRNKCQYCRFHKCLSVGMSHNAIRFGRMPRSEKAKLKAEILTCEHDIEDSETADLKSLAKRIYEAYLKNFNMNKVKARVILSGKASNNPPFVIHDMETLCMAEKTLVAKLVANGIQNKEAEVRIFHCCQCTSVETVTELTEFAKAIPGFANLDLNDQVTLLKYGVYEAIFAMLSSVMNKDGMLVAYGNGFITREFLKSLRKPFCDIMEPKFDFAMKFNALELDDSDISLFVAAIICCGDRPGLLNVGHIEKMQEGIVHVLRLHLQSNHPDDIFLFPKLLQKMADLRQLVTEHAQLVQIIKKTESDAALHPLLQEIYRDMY

[7] = molecular target: T5, Peroxisome proliferator-activated receptor alpha; type: functional; remark: listed apart in the source
Also: assay procedure not described here.

D(1B) dopamine receptor, sequence (P21918 whole entry): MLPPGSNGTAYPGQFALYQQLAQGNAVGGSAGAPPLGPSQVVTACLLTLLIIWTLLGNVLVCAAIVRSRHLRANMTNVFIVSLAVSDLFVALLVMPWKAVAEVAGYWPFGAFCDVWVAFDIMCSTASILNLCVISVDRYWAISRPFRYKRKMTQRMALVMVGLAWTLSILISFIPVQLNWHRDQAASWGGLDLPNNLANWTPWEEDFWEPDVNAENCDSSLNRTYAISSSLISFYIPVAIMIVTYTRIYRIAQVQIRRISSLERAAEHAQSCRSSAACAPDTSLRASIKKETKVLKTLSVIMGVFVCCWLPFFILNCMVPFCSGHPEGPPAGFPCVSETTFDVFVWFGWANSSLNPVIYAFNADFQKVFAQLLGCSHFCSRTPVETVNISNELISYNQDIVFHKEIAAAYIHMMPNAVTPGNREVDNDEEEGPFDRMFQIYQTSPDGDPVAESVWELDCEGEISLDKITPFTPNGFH
Epidermal growth factor receptor, sequence (P00533 whole entry): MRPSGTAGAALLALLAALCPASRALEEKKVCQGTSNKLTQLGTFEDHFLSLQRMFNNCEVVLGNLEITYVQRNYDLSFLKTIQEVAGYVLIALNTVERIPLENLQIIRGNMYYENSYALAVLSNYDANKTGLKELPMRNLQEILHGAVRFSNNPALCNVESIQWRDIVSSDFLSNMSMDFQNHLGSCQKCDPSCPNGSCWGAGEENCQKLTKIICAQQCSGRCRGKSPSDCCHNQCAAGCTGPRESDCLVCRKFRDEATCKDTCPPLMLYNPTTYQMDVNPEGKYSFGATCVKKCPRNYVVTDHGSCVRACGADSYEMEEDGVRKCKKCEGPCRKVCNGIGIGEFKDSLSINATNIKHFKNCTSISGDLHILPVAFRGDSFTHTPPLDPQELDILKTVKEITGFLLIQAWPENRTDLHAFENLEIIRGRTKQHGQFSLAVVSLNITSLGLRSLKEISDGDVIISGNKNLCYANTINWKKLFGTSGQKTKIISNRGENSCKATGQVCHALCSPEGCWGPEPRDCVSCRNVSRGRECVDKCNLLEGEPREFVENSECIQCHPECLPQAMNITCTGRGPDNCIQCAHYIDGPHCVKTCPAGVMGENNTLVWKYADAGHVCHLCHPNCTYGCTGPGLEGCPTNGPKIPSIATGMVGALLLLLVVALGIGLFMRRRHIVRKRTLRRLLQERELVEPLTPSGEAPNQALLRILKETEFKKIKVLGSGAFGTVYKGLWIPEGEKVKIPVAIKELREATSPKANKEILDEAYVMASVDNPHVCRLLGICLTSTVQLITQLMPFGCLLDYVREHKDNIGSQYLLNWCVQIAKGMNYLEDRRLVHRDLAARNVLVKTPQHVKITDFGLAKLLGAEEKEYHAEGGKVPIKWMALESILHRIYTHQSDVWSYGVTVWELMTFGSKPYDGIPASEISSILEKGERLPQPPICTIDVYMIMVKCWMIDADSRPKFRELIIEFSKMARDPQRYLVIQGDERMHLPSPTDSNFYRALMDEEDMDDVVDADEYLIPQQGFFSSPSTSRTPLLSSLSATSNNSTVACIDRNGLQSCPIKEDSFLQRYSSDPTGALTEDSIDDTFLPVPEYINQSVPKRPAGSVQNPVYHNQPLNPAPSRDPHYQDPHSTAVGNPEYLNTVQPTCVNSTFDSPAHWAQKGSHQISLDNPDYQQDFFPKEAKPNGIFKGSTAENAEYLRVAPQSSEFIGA
5-hydroxytryptamine receptor 5A, sequence (P47898 whole entry): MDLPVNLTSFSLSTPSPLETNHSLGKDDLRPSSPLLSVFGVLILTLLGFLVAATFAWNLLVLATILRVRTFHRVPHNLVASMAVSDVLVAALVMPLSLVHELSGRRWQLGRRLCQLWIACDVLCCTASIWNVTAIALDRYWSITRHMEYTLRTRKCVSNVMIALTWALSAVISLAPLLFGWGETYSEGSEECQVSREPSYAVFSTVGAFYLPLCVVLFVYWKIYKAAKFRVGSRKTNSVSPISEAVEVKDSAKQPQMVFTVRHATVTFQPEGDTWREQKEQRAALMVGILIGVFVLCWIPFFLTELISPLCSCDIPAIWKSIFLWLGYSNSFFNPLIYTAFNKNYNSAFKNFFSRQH
Histamine H1 receptor, sequence (P35367 whole entry): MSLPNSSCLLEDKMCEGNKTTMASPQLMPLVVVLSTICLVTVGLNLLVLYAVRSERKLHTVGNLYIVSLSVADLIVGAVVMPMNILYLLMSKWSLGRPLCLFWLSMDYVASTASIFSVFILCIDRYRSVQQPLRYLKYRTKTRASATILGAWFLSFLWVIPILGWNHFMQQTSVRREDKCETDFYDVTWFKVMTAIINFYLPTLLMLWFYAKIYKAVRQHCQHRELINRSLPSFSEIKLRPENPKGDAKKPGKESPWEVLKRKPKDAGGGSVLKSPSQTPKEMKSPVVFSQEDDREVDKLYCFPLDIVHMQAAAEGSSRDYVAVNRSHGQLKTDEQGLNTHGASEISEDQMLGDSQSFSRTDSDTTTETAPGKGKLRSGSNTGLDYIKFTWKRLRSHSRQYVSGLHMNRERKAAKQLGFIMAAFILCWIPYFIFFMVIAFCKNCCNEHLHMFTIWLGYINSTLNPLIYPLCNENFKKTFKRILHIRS

CO/N=C(\C(=O)N[C@@H]1C(=O)N2C(C(=O)[O-])=C(C[N+]3(C)CCCC3)CS[C@H]12)c1csc(N)n1
AC50 [1]: > 300 µM

CCOC(=O)[C@H](CCc1ccccc1)N[C@@H](C)C(=O)N1CCC[C@H]1C(=O)O
AC50 (Substance-K receptor): > 10 µM
AC50 (D(1B) dopamine receptor): > 10 µM
AC50 [2]: > 10 µM
AC50 [3]: > 10 µM

Nc1nc(N)c2nc(-c3ccccc3)c(N)nc2n1
AC50 (Substance-K receptor): > 10 µM
AC50 (D(1B) dopamine receptor): > 10 µM
AC50 [2]: > 10 µM
AC50 [3]: > 10 µM
AC50 [4]: > 30 µM
AC50 [5]: > 30 µM

Oc1ncnc2[nH]ncc12 [ALLOPURINOL]
AC50 [4]: > 30 µM
AC50 [5]: > 30 µM

COC(=O)[C@@H]1CC2=CC(=O)CC[C@]2(C)[C@@]23O[C@@H]2C[C@@]2(C)[C@@H](CC[C@@]24CCC(=O)O4)[C@H]13 [EPLERENONE]
AC50 (Histamine H1 receptor): > 30 µM
AC50 [1]: > 30 µM

C#C[C@]1(O)CC[C@H]2[C@@H]3CCc4cc(O)ccc4[C@H]3CC[C@@]21C [ETHINYL ESTRADIOL]
AC50 [6]: > 30 µM
AC50 [7]: > 30 µM
AC50 [2]: > 30 µM

NC(N)=Nc1nc(CSCCC(N)=NS(N)(=O)=O)cs1 [FAMOTIDINE]
AC50 (Substance-K receptor): > 10 µM
AC50 (D(1B) dopamine receptor): > 10 µM
AC50 [2]: > 10 µM
AC50 [3]: > 10 µM

CC(C)C(=O)Nc1ccc([N+](=O)[O-])c(C(F)(F)F)c1 [FLUTAMIDE]
AC50 [4]: > 30 µM
AC50 [5]: > 30 µM

COc1ccc2c(c1)C(=O)N(CCc1ccc(S(=O)(=O)NC(=O)NC3CCCCC3)cc1)C(=O)C2(C)C [GLIQUIDONE]
AC50 [6]: > 30 µM
AC50 [7]: > 30 µM

NS(=O)(=O)c1cc2c(cc1Cl)NCNS2(=O)=O [HYDROCHLOROTHIAZIDE]
AC50 (Substance-K receptor): > 10 µM
AC50 (D(1B) dopamine receptor): > 10 µM
AC50 [2]: > 10 µM
AC50 [3]: > 10 µM

CC(C)Cc1ccc(CC(=O)O)cc1 [IBUFENAC]
AC50 [1]: > 30 µM

CC(C)NNC(=O)c1ccncc1 [IPRONIAZID]
AC50 [1]: > 30 µM

CC(C(=O)O)c1ccc(N2CC=CC2)c(Cl)c1 (stereo not given) [PIRPROFEN]
AC50 (Histamine H1 receptor): > 30 µM

NC(=O)c1cnccn1 [PYRAZINAMIDE]
AC50 [4]: > 30 µM
AC50 [5]: > 30 µM

O=C(NC[C@H]1CN(c2ccc(N3CCOCC3=O)cc2)C(=O)O1)c1ccc(Cl)s1 [RIVAROXABAN]
AC50 [6]: > 30 µM
AC50 [7]: > 30 µM

O=C(CCCCCCC(=O)Nc1ccccc1)NO [VORINOSTAT]
AC50 (Histamine H1 receptor): > 30 µM
AC50 (Substance-K receptor): > 10 µM
AC50 [3]: > 10 µM
